From patent US20240024403A1, “Compositions and Methods for Managing Weight” (Unigen, Inc., priority 2012, published 2024)

Test: High fat diet induced obesity (DIO) mouse model
Format: in vivo, C57CL/6J mice
Conditions: for Weight (total body weight) / Total Weight: in g (unit assumed)
Protocol: C57CL/6J mice aged 4-6 weeks (Korea Research Institute of Bioscience & Biotechnology, Ohchang, Korea) were housed in Polycarbonate cages (five mice per cage) in a room with a 12 hr:12 hr light-dark cycle and an ambient temperature of 24° C. All the mice were fed a commercial chow diet for 1 week after arrival in the animal facility. Mice were then divided into normal and obesity groups and fed with normal diet (ND) and high fat diets (HFD) respectively. The HFD group was divided into multiple treatment groups: a high fat diet vehicle group (HFD), an orlistat (purchased as OTC drug Alli®) positive control treatment group (ORI, 40 mg/kg of animal weight, 2 times/day) and optionally a sibutramine positive control treatment group (10 mg/kg, 1 time/day). The HFD contained 340 g of fat/kg of HFD (310 g lard plus 30 g soybean oil; Harlan Laboratories, USA). The HFD was formulated to provide 60% of the total energy generated by the diet from fat by replacing carbohydrate energy with lard and soybean oil, whereas the normal diet (ND) group was fed a diet providing only 18% of the total diet energy from fat(Harlan Laboratories, USA).
Body weight was measured once each week and feed intake was measured twice per week. At the end of the experimental period, following a 12 hr. fasting period, the animals were anesthetized with ether, and blood was drawn from the abdominal vein. Liver and kidney and adipose tissues (epididymal, retroperitoneal, perirenal adipose tissues) were removed from each animal, rinsed with physiological saline, and weighed. Serum concentrations of glucose, total cholesterol, triglycerides, and LDL-cholesterol were determined using automatic analyzer (INTEGRA 400, Roche, Germany). Statistical significance of test results was measured using the Student's t-test.

[1] = DIO mice blood biochemistry, SIB 10 mg/kg, ORI 40 mg/kg, Mutamba extract 32 (G1) 1000 mg/kg, mean
[2] = DIO mice blood biochemistry, SIB 10 mg/kg, ORI 40 mg/kg, Mutamba extract 33-2 G1 1000 mg/kg, mean
[3] = DIO mice liver pathology score, SIB 10 mg/kg, ORI 40 mg/kg, Mutamba extract 32 (G1) 1000 mg/kg, mean
[4] = DIO mice, ORI 40 mg/kg, seven week study, mean
[5] = DIO mice, biochemistry parameters, G3, G4 1000 mg/kg oral two times per day
[6] = DIO mice, blood at end of study, ORI 40 mg/kg, mean
[7] = DIO mice, blood at end of study, ORI 40 mg/kg, G1 300 mg/kg (Morus:Magnolia 2:1)
[8] = DIO mice, blood at end of study, ORI 40 mg/kg, G1 1200 mg/kg (Morus:Yerba Mate 1:5)
[9] = DIO mice, liver pathology, ORI 40 mg/kg, mean
[10] = DIO mice, oral, seven weeks, combination (2:5) 700 mg/kg, ORI 40 mg/kg, group mean
[11] = DIO mice, oral, week 1, ORI 40 mg/kg, G1 700 mg/kg (Morus:Rosemary 2:5)
[12] = DIO mice, oral, week 1, ORI 40 mg/kg, G1 1200 mg/kg (Morus:Yerba Mate 1:5)
[13] = DIO mice, oral, week 2, ORI 40 mg/kg, G1 700 mg/kg (Morus:Rosemary 2:5)
[14] = DIO mice, oral, week 2, ORI 40 mg/kg, G1 1200 mg/kg (Morus:Yerba Mate 1:5)

CCCCCCCCCCC[C@@H](C[C@@H]1OC(=O)[C@H]1CCCCCC)OC(=O)[C@H](CC(C)C)NC=O [ORI, orlistat]
ALT [1]: 40.42 U/L | AST [1]: 67.96 U/L | HDL-C [1]: 78.52 mg/dL | LDL-C [1]: 6.78 mg/dL | T-chol [1]: 184.40 mg/dL | TG [1]: 143.60 mg/dL | LDL-C [2]: 7.42 mg/dL | T-chol [2]: 182.40 mg/dL | TG [2]: 41.20 mg/dL | Hepatocellular ballooning (0-2) [3]: 0.60 | Lobular Inflammation (0-3) [3]: 1.60 | Steatosis (0-3) [3]: 1.20 | NASH (sum) (DIO mice liver pathology, sum of scores, SIB 10 mg/kg, ORI 40 mg/kg, Mutamba extract 32 (G1) 1000 mg/kg, mean): 3.40 | Food Intake [4]: 3.195 g/day | Weight Gain [4]: 0.000 g/day | Food Efficiency Ratio (FER) (DIO mice, ORI 40 mg/kg, seven week study, body weight gain/food intake): 0.000 | Weight Gain (DIO mice, ORI 40 mg/kg, week 1, mean): −5.43 | Weight Gain (DIO mice, ORI 40 mg/kg, week 2, mean): −6.69 | Weight Gain (DIO mice, ORI 40 mg/kg, week 3, mean): −5.27 | Weight Gain (DIO mice, ORI 40 mg/kg, week 4, mean): −3.47 | Weight Gain (DIO mice, ORI 40 mg/kg, week 5, mean): −2.34 | Weight Gain (DIO mice, ORI 40 mg/kg, week 6, mean): −1.08 | Weight Gain (DIO mice, ORI 40 mg/kg, week 7, mean): 0.02 | ALP [5]: 186.51 U/L | ALT [5]: 35.12 U/L | AST [5]: 62.03 U/L | Glu [5]: 267.22 mg/dL | HDL-C [5]: 74.22 mg/dL | LDL-C [5]: 7.56 mg/dL | T-chol [5]: 175.44 mg/dL | TG [5]: 46.78 mg/dL | TP [5]: 4.89 g/dL | ALT [6]: 21.83 U/L | AST [6]: 65.65 U/L | TG [6]: 27.83 mg/dL | F-Glu (fasting glucose) [7]: 225.50 mg/dL | LDL-C [7]: 3.30 mg/dL | T-Chol (total cholesterol) [7]: 134.00 mg/dL | Triglyceride [7]: 62.50 mg/dL | F-Glu (fasting glucose) [8]: 225.50 mg/dL | LDL-C [8]: 3.30 mg/dL | T-Chol (total cholesterol) [8]: 134.00 mg/dL | Triglyceride [8]: 62.50 mg/dL | Hepatocellular ballooning (0-2) [9]: 0.67 | Lobular Inflammation (0-3) [9]: 1.33 | NASH (sum) [9]: 2.67 | Steatosis (0-3) [9]: 0.67 | Perirenal Fat (DIO mice, oral, seven weeks, combination 700 mg/kg, ORI 40 mg/kg, group mean): 0.43 | Food Efficiency Ratio (FER) (DIO mice, oral, seven weeks, combination (2:5) 700 mg/kg, ORI 40 mg/kg, FER = body weight gain/food intake): 0.005 | Body Weight Gain [10]: 0.012 g/day | Food Intake [10]: 2.711 g/day | Weight (total body weight) (DIO mice, oral, week 0, ORI 40 mg/kg, G1 700 mg/kg (Morus:Rosemary 2:5)): 42.39 | Total Weight (DIO mice, oral, week 0, ORI 40 mg/kg, G1 1200 mg/kg (Morus:Yerba Mate 1:5)): 38.40 | Body Weight Gain (DIO mice, oral, week 1, ORI 40 mg/kg, G1 300 mg/kg (Morus:Magnolia 2:1)): −3.20 | Body Weight Gain [11]: −3.56 | Weight (total body weight) [11]: 38.83 | Weight Gain [12]: −3.20 | Total Weight [12]: 35.20 | Body Weight Gain (DIO mice, oral, week 2, ORI 40 mg/kg, G1 300 mg/kg (Morus:Magnolia 2:1)): −4.88 | Body Weight Gain [13]: −5.75 | Weight (total body weight) [13]: 36.64 | Weight Gain [14]: −4.88 | Total Weight [14]: 33.58 | Body Weight Gain (DIO mice, oral, week 3, ORI 40 mg/kg, G1 300 mg/kg (Morus:Magnolia 2:1)): −3.34
